Among the data in patent US11878965B2, “Inhibitors of peptidylarginine deiminases” (Gilead Sciences, Inc., priority 2020, dated 2024) are IC50 values, retold here.

Chain of human PAD4 (Q9UM07 2-663): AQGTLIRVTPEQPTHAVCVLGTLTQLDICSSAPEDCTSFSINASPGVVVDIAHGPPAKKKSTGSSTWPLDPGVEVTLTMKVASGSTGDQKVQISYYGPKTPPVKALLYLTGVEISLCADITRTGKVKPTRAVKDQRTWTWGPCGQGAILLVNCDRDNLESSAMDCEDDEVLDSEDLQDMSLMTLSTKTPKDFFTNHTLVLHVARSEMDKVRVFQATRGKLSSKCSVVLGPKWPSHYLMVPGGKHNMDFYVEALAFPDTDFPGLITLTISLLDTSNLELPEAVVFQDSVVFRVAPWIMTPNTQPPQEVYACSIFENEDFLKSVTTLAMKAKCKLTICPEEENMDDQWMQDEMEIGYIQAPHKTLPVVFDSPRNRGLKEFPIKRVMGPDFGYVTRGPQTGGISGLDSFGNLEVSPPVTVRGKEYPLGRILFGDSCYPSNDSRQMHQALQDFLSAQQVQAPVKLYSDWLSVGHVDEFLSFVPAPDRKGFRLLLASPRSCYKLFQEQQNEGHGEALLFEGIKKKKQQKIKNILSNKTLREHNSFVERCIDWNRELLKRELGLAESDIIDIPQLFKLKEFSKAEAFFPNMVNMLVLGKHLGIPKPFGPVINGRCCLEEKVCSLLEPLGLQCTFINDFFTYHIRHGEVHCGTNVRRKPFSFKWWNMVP

The first experiment concerns the target human PAD4 (Homo sapiens (Human), UniProt Q9UM07). The experiment is described as follows: In Vitro PAD4 BAEE Biochemical Assay. As to conditions: human PAD4, BAEE substrate; 5 nM PAD4, 2 mM calcium chloride, 3 mM BAEE; geometric mean of multiple experiments. The method, boiled down: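 Recombinant human PAD4 (His-SUMO tag removed, E. coli-expressed), 5 nM, preincubated with compound and 2 mM CaCl2 30 min at 25 °C in MOPS pH 7.6 with DTT; 3 mM BAEE added for 2 h at 25 °C, EDTA stop. Released ammonia detected by o-phthalaldehyde/DTT fluorescence (ex 405, em 535 nm).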
Broadly, the IC50 is the point on the concentration scale where inhibition reaches its midpoint. Take `COc1cc(C(=O)N2C[C@H](N)CCN2C)cc2nc(-c3cc4ccc([C@@H](C)NC(=O)c5ncccc5C)nc4n3CC3CC3)n(C)c12` [Example 175, N-((R)-1-(2-(5-((R)-5-amino-2-methylhexahydropyridazine-1-carbonyl)-7-methoxy-1-methyl-1H-benzo[d]imidazol-2-yl)-1-(cyclopropylmethyl)-1H-pyrrolo[2,3-b]pyridin-6-yl)ethyl)-3-methylpicolinamide]: the half-maximal inhibitory concentration (IC50) is 139 nM.
For the compound `CS(=O)(=O)N(c1ccc2cc(-c3nc4cc(C(=O)N5[C@H]6CC[C@@H]5[C@H](N)C6)ccc4n3C3CC3)n(CC3CC3)c2n1)C(F)F` [Example 65, N-(2-(5-((1R,2R,4S)-2-amino-7-azabicyclo[2.2.1]heptane-7-carbonyl)-1-cyclopropyl-1H-benzo[d]imidazol-2-yl)-1-(cyclopropylmethyl)-1H-pyrrolo[2,3-b]pyridin-6-yl)-N-(difluoromethyl) methanesulfonamide], the IC50 was found to be 47 nM.
Take `CNC(=O)N(C)c1ccc2cc(-c3nc4cc(C(=O)N5CCC[C@@H](N)C5)cc(OC)c4n3C)n(CC3CC3)c2n1` [Example 116, (R)-1-(2-(5-(3-aminopiperidine-1-carbonyl)-7-methoxy-1-methyl-1H-benzo[d]imidazol-2-yl)-1-(cyclopropylmethyl)-1H-pyrrolo[2,3-b]pyridin-6-yl)-1,3-dimethylurea]: the concentration for half-maximal inhibition (IC50) turned out to be 496 nM.
In the case of `COc1cc(C(=O)N2[C@H]3CC[C@@H]2[C@H](N)C3)cc2nc(-c3cc4ccc([C@@H](C)NC(=O)C56CC(F)(C5)C6)nc4n3CC3CC3)n(C3CC3)c12` [Example 130, N-((R)-1-(2-(5-((1R,2R,4S)-2-amino-7-azabicyclo[2.2.1]heptane-7-carbonyl)-1-cyclopropyl-7-methoxy-1H-benzo[d]imidazol-2-yl)-1-(cyclopropylmethyl)-1H-pyrrolo[2,3-b]pyridin-6-yl)ethyl)-3-fluorobicyclo[1.1.1]pentane-1-carboxamide], the 50% inhibitory concentration (IC50) was determined as 45.1 nM.
Regarding `COc1cc(C(=O)N2C[C@H](N)CCN2C)cc2nc(-c3cc4ccc([C@@H](C)NC(=O)c5ncccn5)nc4n3CC3CC3)n(C)c12` [Example 180, N-((R)-1-(2-(5-((R)-5-amino-2-methylhexahydropyridazine-1-carbonyl)-7-methoxy-1-methyl-1H-benzo[d]imidazol-2-yl)-1-(cyclopropylmethyl)-1H-pyrrolo[2,3-b]pyridin-6-yl)ethyl)pyrimidine-2-carboxamide], the IC50 was 28.8 nM.
In the case of `COc1cc(C(=O)N2[C@H]3CC[C@@H]2[C@H](N)C3)cc2nc(-c3cc4ccc([C@@H](C)NC(C)=O)nc4n3CC3CC3)n(C3CC3)c12` [Example 131, N-((R)-1-(2-(5-((1R,2R,4S)-2-amino-7-azabicyclo[2.2.1]heptane-7-carbonyl)-1-cyclopropyl-7-methoxy-1H-benzo[d]imidazol-2-yl)-1-(cyclopropylmethyl)-1H-pyrrolo[2,3-b]pyridin-6-yl)ethyl)acetamide], the IC50 was 25.9 nM.
Still for that read-out and setting: as for `C[C@H](CN)NC(=O)c1cc2nc(-c3cc4ccc(N(C(F)F)S(C)(=O)=O)nc4n3CC3CC3)n(C)c2cc1F` [Example 94, (R)-N-(1-aminopropan-2-yl)-2-(1-(cyclopropylmethyl)-6-((N-(difluoromethyl)methyl)sulfonamido)-1H-pyrrolo[2,3-b]pyridin-2-yl)-6-fluoro-1-methyl-1H-benzo[d]imidazole-5-carboxamide], the figure is 26400 nM; as for `COc1cc(C(=O)N2C[C@H](N)CC[C@@H]2C)cc2nc(-c3cc4ccc(-c5cccnc5S(C)(=O)=O)nc4n3CC3CC3)n(C)c12` [Example 265, ((2S,5R)-5-amino-2-methylpiperidin-1-yl)(2-(1-(cyclopropylmethyl)-6-(2-(methylsulfonyl)pyridin-3-yl)-1H-pyrrolo[2,3-b]pyridin-2-yl)-7-methoxy-1-methyl-1H-benzo[d]imidazol-5-yl)methanone], 269 nM.
The same measure, in the same setting: as for `COc1cc(C(=O)N2C[C@H](N)CC[C@@H]2C)cc2nc(-c3cc4ccc(-c5cccc6c5CNC6=O)nc4n3CC3CC3)n(C)c12` [Example 262, 4-(2-(5-((2S,5R)-5-amino-2-methylpiperidine-1-carbonyl)-7-methoxy-1-methyl-1H-benzo[d]imidazol-2-yl)-1-(cyclopropylmethyl)-1H-pyrrolo[2,3-b]pyridin-6-yl)isoindolin-1-one], the figure is 584 nM.
Same read-out and setting: as for `COc1cc(C(=O)N2C[C@H](N)CC[C@@H]2C)cc2nc(-c3cc4ccc(-c5ccc6[nH]ncc6c5C)nc4n3CC3CC3)n(C)c12` [Example 257, ((2S,5R)-5-amino-2-methylpiperidin-1-yl)(2-(1-(cyclopropylmethyl)-6-(4-methyl-1H-indazol-5-yl)-1H-pyrrolo[2,3-b]pyridin-2-yl)-7-methoxy-1-methyl-1H-benzo[d]imidazol-5-yl)methanone], the figure is 1360 nM; as for `CCN(c1ccc2cc(-c3nc4cc(C(=O)N5CCC[C@@H](N)[C@H]5C)cc(OC)c4n3CC3(C)CC3)n(CC3CC3)c2n1)S(C)(=O)=O` [Example 40, N-(2-(5-((2R,3R)-3-amino-2-methylpiperidine-1-carbonyl)-7-methoxy-1-((1-methylcyclopropyl)methyl)-1H-benzo[d]imidazol-2-yl)-1-(cyclopropylmethyl)-1H-pyrrolo [2,3-b]pyridin-6-yl)-N-ethylmethanesulfonamide], 329 nM; as for `CN(c1ccc2cc(-c3nc4cc(C(=O)N5[C@H]6CC[C@@H]5[C@H](N)C6)cc5c4n3CCO5)n(CC3CC3)c2n1)S(C)(=O)=O` [Example 90, N-(2-(7-((1R,2R,4S)-2-amino-7-azabicyclo[2.2.1]heptane-7-carbonyl)-3,4-dihydro-5-oxa-1,2a-diazaacenaphthylen-2-yl)-1-(cyclopropylmethyl)-1H-pyrrolo [2,3-b]pyridin-6-yl)-N-methylmethanesulfonamide], 214 nM.
With `CCS(=O)(=O)N(C)c1ccc2cc(-c3nc4cc(C(=O)N5CCC[C@@H](N)C5)cc(OC)c4n3C)n(CC3CC3)c2n1` [Example 7, (R)-N-(2-(5-(3-aminopiperidine-1-carbonyl)-7-methoxy-1-methyl-1H-benzo[d]imidazol-2-yl)-1-(cyclopropylmethyl)-1H-pyrrolo [2,3-b]pyridin-6-yl)-N-methylethanesulfonamide], the concentration for half-maximal inhibition (IC50) came to 164 nM.
Take `COc1cc(C(=O)N2C[C@H](N)[C@@H]3CC[C@H]2C3)cc2nc(-c3cc4ccc([C@@H](C)NC(=O)C(C)(C)C)nc4n3CC3CC3)n(C)c12` [Example 221, N-((R)-1-(2-(5-((1S,4R,5R)-4-amino-2-azabicyclo[3.2.1]octane-2-carbonyl)-7-methoxy-1-methyl-1H-benzo[d]imidazol-2-yl)-1-(cyclopropylmethyl)-1H-pyrrolo[2,3-b]pyridin-6-yl)ethyl)pivalamide]: the IC50 came out at 61 nM.
For the compound `COc1cc(C(=O)N2C[C@H](N)CC[C@@H]2C)cc2nc(-c3cc4ccc(C(=O)N(C)c5ccccc5)nc4n3CC3CC3)n(C)c12` [Example 252, 2-(5-((2S,5R)-5-amino-2-methylpiperidine-1-carbonyl)-7-methoxy-1-methyl-1H-benzo[d]imidazol-2-yl)-1-(cyclopropylmethyl)-N-methyl-N-phenyl-1H-pyrrolo[2,3-b]pyridine-6-carboxamide], the IC50 is 1820 nM.
As for `COc1cc(C(=O)N2C[C@H](N)CCN2C)cc2nc(-c3cc4ccc([C@@H](C)NC(=O)c5cccnc5C)nc4n3CC3CC3)n(C)c12` [Example 177, N-((R)-1-(2-(5-((R)-5-amino-2-methylhexahydropyridazine-1-carbonyl)-7-methoxy-1-methyl-1H-benzo[d]imidazol-2-yl)-1-(cyclopropylmethyl)-1H-pyrrolo[2,3-b]pyridin-6-yl)ethyl)-2-methylnicotinamide], the IC50 was determined as 90.8 nM.

Still in this experiment, the particulars now being: recombinant PAD4 5 nM, 2 mM calcium chloride, 3 mM BAEE substrate; geometric mean of multiple experiments.
With `COc1cc(C(=O)N2C[C@H](N)[C@@H]3CC[C@H]2C3)cc2nc(-c3cc4ccc([C@@H](C)NC(=O)C56C7C8C9C7C5C9C86)nc4n3CC3CC3)n(C)c12` (stereo partly drawn) [Example 299, N-((R)-1-(2-(5-((1S,4R,5R)-4-amino-2-azabicyclo[3.2.1]octane-2-carbonyl)-7-methoxy-1-methyl-1H-benzo[d]imidazol-2-yl)-1-(cyclopropylmethyl)-1H-pyrrolo[2,3-b]pyridin-6-yl)ethyl)cubane-1-carboxamide], the half-maximal inhibitory concentration (IC50) was determined as 74.3 nM.
The same measure, in the same setting: as for `COc1cc(C(=O)N2C[C@H](N)[C@@H]3CC[C@H]2C3)cc2nc(-c3cc4ccc([C@@H](C)NC(=O)C(C)(C)OC)nc4n3CC3CC3)n(C)c12` [Example 321, N-((R)-1-(2-(5-((1S,4R,5R)-4-amino-2-azabicyclo[3.2.1]octane-2-carbonyl)-7-methoxy-1-methyl-1H-benzo[d]imidazol-2-yl)-1-(cyclopropylmethyl)-1H-pyrrolo[2,3-b]pyridin-6-yl)ethyl)-2-methoxy-2-methylpropanamide], the figure is 72 nM; as for `COc1cc(C(=O)N2C[C@H](N)[C@@H]3CC[C@H]2C3)cc2nc(-c3cc4ccc([C@@H](C)NC(=O)c5ccc(C#CC(C)(C)S(C)(=O)=O)nc5)nc4n3CC3CC3)n(C)c12` [Example 308, N-((R)-1-(2-(5-((1S,4R,5R)-4-amino-2-azabicyclo[3.2.1]octane-2-carbonyl)-7-methoxy-1-methyl-1H-benzo[d]imidazol-2-yl)-1-(cyclopropylmethyl)-1H-pyrrolo[2,3-b]pyridin-6-yl)ethyl)-6-(3-methyl-3-(methylsulfonyl)but-1-yn-1-yl)nicotinamide], 66.2 nM.
Turning to `COc1cc(C(=O)N2C[C@H](N)[C@@H]3CC[C@H]2C3)cc2nc(-c3cc4ccc([C@@H](C)NC(=O)C56CC(C5)C6)nc4n3CC3CC3)n(C)c12` [Example 290, N-((R)-1-(2-(5-((1S,4R,5R)-4-amino-2-azabicyclo[3.2.1]octane-2-carbonyl)-7-methoxy-1-methyl-1H-benzo[d]imidazol-2-yl)-1-(cyclopropylmethyl)-1H-pyrrolo[2,3-b]pyridin-6-yl)ethyl)bicyclo[1.1.1] pentane-1-carboxamide], the IC50 was 79.2 nM.
